ChEMBL document CHEMBL1137962, “New heteroarylbenzenesulphonamides as matrix metalloproteinase inhibitors” (Bioorg Med Chem Lett, 2004)

Key:
[1] = molecular target: Matrix metalloproteinase-9 (Homo sapiens, UniProt P14780); assay: Inhibition of matrix metalloprotease-9
[2] = molecular target: 72 kDa type IV collagenase (Homo sapiens, UniProt P08253); assay: Inhibition of matrix metalloprotease-2
Sequence of 72 kDa type IV collagenase (P08253 whole entry): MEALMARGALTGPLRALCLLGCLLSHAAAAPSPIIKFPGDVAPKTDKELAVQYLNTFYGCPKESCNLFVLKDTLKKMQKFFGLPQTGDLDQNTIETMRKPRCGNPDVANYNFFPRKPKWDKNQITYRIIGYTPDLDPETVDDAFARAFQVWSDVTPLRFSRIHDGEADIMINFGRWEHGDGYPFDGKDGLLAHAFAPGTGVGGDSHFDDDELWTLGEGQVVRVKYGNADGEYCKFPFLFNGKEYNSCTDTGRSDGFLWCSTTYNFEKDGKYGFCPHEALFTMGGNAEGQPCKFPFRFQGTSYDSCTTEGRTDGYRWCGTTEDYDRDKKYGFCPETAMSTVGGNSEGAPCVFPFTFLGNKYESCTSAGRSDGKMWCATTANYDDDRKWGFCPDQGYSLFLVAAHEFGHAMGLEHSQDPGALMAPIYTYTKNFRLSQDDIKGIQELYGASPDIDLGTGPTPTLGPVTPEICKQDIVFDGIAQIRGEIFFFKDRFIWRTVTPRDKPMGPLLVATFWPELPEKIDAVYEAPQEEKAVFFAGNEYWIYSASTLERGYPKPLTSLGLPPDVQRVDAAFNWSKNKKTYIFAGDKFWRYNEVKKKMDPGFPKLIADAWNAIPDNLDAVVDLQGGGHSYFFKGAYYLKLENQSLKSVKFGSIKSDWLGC

Sequence of Matrix metalloproteinase-9 (P14780 whole entry): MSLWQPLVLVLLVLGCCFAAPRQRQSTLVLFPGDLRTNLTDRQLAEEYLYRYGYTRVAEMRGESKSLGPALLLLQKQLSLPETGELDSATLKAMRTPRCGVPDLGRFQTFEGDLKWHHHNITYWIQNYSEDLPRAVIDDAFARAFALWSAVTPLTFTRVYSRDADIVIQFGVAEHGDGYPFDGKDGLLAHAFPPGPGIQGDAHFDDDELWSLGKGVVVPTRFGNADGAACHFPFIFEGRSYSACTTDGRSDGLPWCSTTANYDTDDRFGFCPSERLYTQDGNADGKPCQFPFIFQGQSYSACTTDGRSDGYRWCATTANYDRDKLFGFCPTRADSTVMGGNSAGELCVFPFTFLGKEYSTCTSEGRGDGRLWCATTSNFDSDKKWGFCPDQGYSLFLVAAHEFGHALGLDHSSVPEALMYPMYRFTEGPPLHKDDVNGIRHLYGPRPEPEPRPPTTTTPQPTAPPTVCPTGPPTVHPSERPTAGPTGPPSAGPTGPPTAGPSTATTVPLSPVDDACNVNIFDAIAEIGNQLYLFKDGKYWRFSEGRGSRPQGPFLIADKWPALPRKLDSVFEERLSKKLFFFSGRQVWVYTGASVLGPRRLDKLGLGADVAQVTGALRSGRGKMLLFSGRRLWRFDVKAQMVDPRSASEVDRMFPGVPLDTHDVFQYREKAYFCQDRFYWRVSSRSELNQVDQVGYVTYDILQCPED

| Structure (SMILES) | IC50 [1] | IC50 [2] |
| --- | --- | --- |
| COc1ccc(-c2cnc(-c3ccc(S(=O)(=O)NC(C(=O)NO)C(C)C)cc3)o2)cc1 (centres undefined) | 1 µM | 1 µM |
| COc1ccc(-c2cnc(-c3ccc(S(=O)(=O)NC(C(=O)CCC(=O)O)C(C)C)cc3)o2)cc1 (centres undefined) | 10 µM | 10 µM |
| COc1ccc(-c2cnc(-c3ccc(S(=O)(=O)NC(C(=O)O)C(C)C)cc3)o2)cc1 (centres undefined) | 1 µM | 1 µM |
| COc1ccc(-c2cnc(-c3ccc(S(=O)(=O)NC(C(=O)NO)C(C)C)cc3)s2)cc1 (centres undefined) | 0.9 µM | 0.4 µM |

Now those with a lower IC50 [1], led by results:

| IC50 [1] | IC50 [2] | Structure (SMILES) |
| --- | --- | --- |
| 0.2 µM | 0.2 µM | CNC(=O)[C@@H](CC(=O)[C@H](CC(C)C)[C@H](CSc1ccccc1)C(=O)NO)Cc1ccccc1 |
| 0.05 µM | 0.05 µM | COc1ccc(-c2cnc(-c3ccc(S(=O)(=O)NC(CCC(=O)O)C(=O)O)cc3)s2)cc1 (centres undefined) |
| 0.7 µM | 0.2 µM | COc1ccc(-c2cnc(-c3ccc(S(=O)(=O)NC(C(=O)O)C(C)C)cc3)s2)cc1 (centres undefined) |
